These results are taken from US6844320B1, “Treatment of preeclampsia, toxemia and preterm labor with combination of progestational agent and a nitric oxide synthase substrate and/or donor” (Board of Regents, The University of Texas System, priority 1993, dated 2005).

Data set [1] relates to L-NAME-induced "preeclampsia" animals. Put plainly: L-NAME-induced "preeclampsia": blood pressure and fetal weights. Conditions: for Effect on L-NAME-induced hypertension (blood pressure): 50 mg L-NAME (FIG. 5); for Effect on fetal weights (pup weights): same L-NAME-treated "preeclamptic" animals (FIG. 6). It is filed as in vivo.
Data set [2] deals with spontaneously contracting uterine strips from rat. The experiment in a line: Relaxation of spontaneously contracting uterine strips in muscle baths. It is filed as cell-based. The procedure:
The tissues were obtained on days 17-22 (d17, d18, d19 and d22) of gestation, on day 22 (d22 del) during spontaeous delivery (1-3 pups delivered), or on 1 (d1pp) and 2 (d2pp) days postpartum. […] Data are analyzed by repeated measures ANOVA on seven groups. […] Each data point represent mean±S.E.M. The total number of strips studied at each time period was 8-16 from 4-6 animals per group.
Each upstroke from baseline represents a contraction.
In the experiments whose results are shown by the graph of FIG. 2, the tissues were obtained on days 17-22 (d17, d18, d19 and d22) of gestation, on day 22 (d22 del) during spontaneous delivery (1-3 pups delivered), or on 1 (d1pp) and 2 (d2pp) days postpartum. […] Each data point represent mean±SEM. The total number of strips studied at each time period was 8-16 from 4-6 animals per group.

In data set [3] the test system is pregnant rats. The experiment in a line: L-NAME infusion to pregnant rats: delivery and pups delivered. Format: in vivo. The source says: The data in Table 2 below show the delivery and the pups delivered of L-NAME infusion to pregnant rats.
For data set [4], the system named is pregnant rats. Put plainly: L-NAME infusion in pregnant rats: blood pressure. Format: in vivo, rat. The source says: The data in Table 1 below show the effects of L-NAME infusion on blood pressure (mm Hg) in pregnant rats.

Entries after “also recorded” stand apart in the source; their conditions may differ. Marks after values point to notes of the source that are not given here.

Take `CCC(=O)[C@@]1(C)CC[C@H]2[C@@H]3CCC4=CC(=O)CCC4=C3CC[C@@]21C` [R 5020, promegestone]: in data set [1], the “Effect on L-NAME-induced hypertension (blood pressure)” value was “partinally reduced” and the “Effect on fetal weights (pup weights)” value is listed as “slightly but statistically significant, elevated fetal weights”.
As to `[N]=O` [nitric oxide], the “Relaxation of spontaneously contracting uterine strips” value in data set [2] (0.1 mM, rat day 18 of gestation (FIG. 1D)) is “substantial relaxations; also recorded: relaxation”.
Take `CN(C)c1ccc2nc3ccc(=[N+](C)C)cc-3sc2c1` [methylene blue]: in data set [2] (0.1 mM, added before the application of L-arginine), the “Effect on the relaxation effect of L-arginine (1 mM)” value is reported as “abolished”. In data set [2] ((FIG. 1E)), the “Effect on the relaxation produced by L-arginine” value is “reversed”.
Regarding `COC(=O)[C@@H](N)CCCNC(=N)N[N+](=O)[O-]` [L-NAME, N^G-nitro-L-arginine methyl ester], the “Day of Delivery” value in data set [3] (L-NAME 25 mg/day) is 22.4 ± 0.2; in data set [3] (L-NAME 50 mg/day), 22.7 ± 0.2. Besides, the figures for the Weight of pups in data set [3] (L-NAME 25 mg/day) and in data set [3] (L-NAME 50 mg/day) were 5.05 ± 0.08^b and 4.56 ± 0.10^c, respectively. Further, the “# of dead pups” value was 5 in data set [3] (L-NAME 25 mg/day, 9 animals) and 10 in data set [3] (L-NAME 50 mg/day, 10 animals). The “Effect on the relaxation produced by L-arginine” value in data set [2] (3 mM (FIG. 1B)) is “reversed”. Further, the “Blood Pressure” value in data set [4] (L-NAME 25 mg/day infusion, gestation Day 15) was 119 ± 2^a mm Hg; in data set [4] (L-NAME 25 mg/day infusion, gestation Day 18), 144 ± 4^b mm Hg; in data set [4] (L-NAME 25 mg/day infusion, gestation Day 22), 146 ± 2^b mm Hg; in data set [4] (L-NAME 50 mg/day infusion, gestation Day 15), 123 ± 3^a mm Hg; in data set [4] (L-NAME 50 mg/day infusion, gestation Day 18) it was 166 ± 2^c mm Hg; in data set [4] (L-NAME 50 mg/day infusion, gestation Day 22), 168 ± 3^c mm Hg.
In the case of `N=C(N)NCCC[C@H](N)C(=O)O` [L-arginine], in data set [1], the “Effect on L-NAME-induced hypertension (blood pressure)” value is given as “partially reduced blood pressure” and the “Effect on fetal weights (pup weights)” value is listed as “slightly but statistically significant, elevated fetal weights”. Moreover, the “Duration of complete inhibition of spontaneous uterine contractions” value in data set [2] (0.1 mM to 10 mM, strips from days 17-22 of gestation, delivery, postpartum (FIG. 2)) is given as “dose-dependent”. Also, the “Relaxation of spontaneously contracting tissues” value in data set [2] (1 mM (FIG. 1E), repeatable in the same strip) was “produced relaxation”. Besides, in data set [2] (1-3 mM, rat day 18 of gestation (FIG. 1 A, B, E)), the “Relaxation of spontaneously contracting uterine strips” value is listed as “substantial relaxations”. Besides, the “Relaxation effects during spontaneous delivery at term and postpartum, compared to all other times” value in data set [2] (from concentrations of 1 mM (FIG. 2)) is listed as “significantly (P<0.01) decreased”.
